Laboratory results taken from patent US20250243227A1, “IDURONIDASE STABILIZERS AND USES THEREOF” (Academia Sinica, priority 2022, published 2025).
One block for each molecule: values may come before it.

Assays:
[1] = target: recombinant human α-IDUA (rh-α-IDUA, Aldurazyme®) (Homo sapiens (Human), UniProt P35475); test: IDUA inhibition assay (fluorogenic substrate 4MU-IdoA); type: biochemical; conditions: for IC50: apparent IC50 against rh-α-IDUA, 4-MU-IdoA substrate, pH 3.5
Experimental: Compounds were mixed with recombinant human α-IDUA (rh-α-IDUA, Aldurazyme®, 1.2 nM as the final concentration) and the fluorogenic substrate, […] (4MU-IdoA; Cayman), at a final concentration of 100 μM in pH 3.5 buffer (50 mM NaOAc and 150 mM NaCl), then incubated in a 384-well microplate at 37° C. for 30 min. Stop solution (500 mM Na2CO3, pH 10.8) was added and fluorescence was read on a CLARIOstar® microplate reader (BMG LABTECH) at 355 nm excitation and 460 nm emission. Raw fluorescence counts were background subtracted, as defined by counts from substrate solution only. Inhibitory screening was performed and the active compounds were selected and further tested at lower concentration to determine their IC50 values and Ki values.
The compounds of Example 1 were evaluated on their inhibitory potential against rh-α-IDUA, and their apparent IC50 values were determined by using the fluorogenic substrates 4-methylumbelliferyl-α-iduronide (4-MU-IdoA) and results are shown in Table 1.

[2] = target: T1, rh-α-IDUA in GM01391 fibroblasts (Homo sapiens (Human), UniProt P35475); test: Cell-based rh-α-IDUA stabilization: intracellular IDUA activity in GM01391 fibroblasts; conditions: for enhancement of IDUA activity versus rh-α-IDUA alone / change of IDUA activity on co-treatment versus rh-α-IDUA alone: rh-α-IDUA 0.1 nM + compound 100 μM (100 aM/100 M [sic] in the source)
Experimental: (§1) FIG. 1. The cell-based rh-α-IDUA stabilization study of the compounds of Example 1/rh-α-IDUA in GM01391 fibroblasts. (A) Preliminary cell-based screening of compounds of Example 1 by the co-treatment of rh-α-IDUA (0.1 nM) with 12 or 27b ([…]); (B) A dose-dependent experiment for 12, 27a, or 27b with 1 nM of rh-α-IDUA; (C) Co-treatment of 12 and rh-α-IDUA (1 or 0.1 nM) on IDUA activity; and (D) 12/rh-α-IDUA co-treatment on HS reduction in cells. Each bar represents the mean±SD of three determinations. *P<0.05; **P<0.01; ***P<0.001 compared to rh-α-IDUA alone, as determined by one-way ANOVA with Dunnett post-hoc analysis.
To this purpose, GM01391 fibroblasts were treated with a combination of rh-α-IDUA (0.1 nM) and compounds 12, and 27a-c ([…]); or with rh-α-IDUA for 1 day, followed by a 1-day wash-out. To measure the intracellular IDUA activity, the corresponding cells were harvested and lysed before the incubation with the fluorogenic substrate. Results are illustrated in FIG. 1.

[3] = test system: heparan sulfate (HS) in GM01391 fibroblasts; test: Cell-based HS analysis (LC-MS/MS of HS disaccharides) in GM01391 fibroblasts; design: species or system human; conditions: co-treatment with rh-α-IDUA
Experimental: as §1
Generally, accumulation of GAGs could be observed in MPS patients due to the dysfunction of any lysosomal enzymes involved in the degradation of GAGs including IDUA associated with MPSI, which means the enhanced efficacy of protein drugs by the co-treatment with protein stabilizers could be evaluated more directly by the improved reduction of GAGs than the increased activity of MPS-related lysosomal enzymes. As a result, a robust method for quantitative detection of HS, one of the types of GAGs excessively stored in MPS I patients, was established by us for the evaluation of potential therapeutic effect of compound 12 in MPSI. […]

[4] = target: rh-α-IDUA in GM02846 fibroblasts (Homo sapiens (Human), UniProt P35475); test: Cell-based rh-α-IDUA stabilization: IDUA activity in GM02846 fibroblasts; conditions: co-treatment with rh-α-IDUA
Source text: (§2) FIG. 2. The cell-based rh-α-IDUA stabilization study of 12/rh-α-IDUA in GM02846 fibroblasts. (A) IDUA activity, and (B) the reduction of HS; Each bar represents the mean±SD of three determinations. *P<0.05; **P<0.01; ***P<0.001 compared to rh-α-IDUA alone, as determined by one-way ANOVA with Dunnett post-hoc analysis.
(§3) HS of the in situ treated fibroblasts were extracted and chemically cleaved to generate HS disaccharides as the released biomarker, which could be quantitatively measured via LC-MS/MS with a synthesized novel disaccharide by us as the internal standard. With this established method for cell-based HS analysis, the qualified CIdoA analogue 12 was further evaluated.

[5] = test system: heparan sulfate (HS) in GM02846 fibroblasts; test: Cell-based HS analysis (LC-MS/MS of HS disaccharides) in GM02846 fibroblasts; design: species or system human; conditions: combination with rh-α-IDUA
Source text: as §2
Generally, accumulation of GAGs could be observed in MPS patients due to the dysfunction of any lysosomal enzymes involved in the degradation of GAGs including IDUA associated with MPSI, which means the enhanced efficacy of protein drugs by the co-treatment with protein stabilizers could be evaluated more directly by the improved reduction of GAGs than the increased activity of MPS-related lysosomal enzymes. As a result, a robust method for quantitative detection of HS, one of the types of GAGs excessively stored in MPS I patients, was established by us for the evaluation of potential therapeutic effect of compound 12 in MPSI.
as §3

[6] = target: T1, rh-α-IDUA in GM01391 fibroblasts; test: Cell-based rh-α-IDUA stabilization: intracellular IDUA activity in GM01391 fibroblasts; conditions: co-treatment with rh-α-IDUA; 1-day treatment followed by 8-day wash-out; data not shown
[7] = rh-α-IDUA 1 nM + compound 500 μM

recombinant human α-IDUA (rh-α-IDUA, Aldurazyme®), sequence (P35475 26-653): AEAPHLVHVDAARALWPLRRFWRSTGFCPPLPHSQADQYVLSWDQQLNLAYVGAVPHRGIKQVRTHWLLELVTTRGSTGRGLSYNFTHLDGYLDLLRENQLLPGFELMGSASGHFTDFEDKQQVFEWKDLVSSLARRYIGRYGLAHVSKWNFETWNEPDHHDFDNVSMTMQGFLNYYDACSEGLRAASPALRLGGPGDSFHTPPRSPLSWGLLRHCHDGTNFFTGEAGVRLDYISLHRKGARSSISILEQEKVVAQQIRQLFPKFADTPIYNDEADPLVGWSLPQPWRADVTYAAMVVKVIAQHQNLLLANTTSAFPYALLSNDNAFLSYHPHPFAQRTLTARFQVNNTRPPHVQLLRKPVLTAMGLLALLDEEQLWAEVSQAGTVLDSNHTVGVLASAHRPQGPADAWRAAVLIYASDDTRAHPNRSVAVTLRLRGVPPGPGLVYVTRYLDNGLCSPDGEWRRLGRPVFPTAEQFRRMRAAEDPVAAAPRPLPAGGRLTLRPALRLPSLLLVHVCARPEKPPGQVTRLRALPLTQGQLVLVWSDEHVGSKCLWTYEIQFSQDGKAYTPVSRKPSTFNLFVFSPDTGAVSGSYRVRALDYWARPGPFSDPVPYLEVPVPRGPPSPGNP
T1 sequence (P35475 26-653): as above
rh-α-IDUA in GM02846 fibroblasts, sequence (P35475 26-653): as above

Molecule: NCC[C@@H]1O[C@@H](C(=O)O)[C@@H](O)[C@H](O)[C@H]1O [Compound 12]
Ki ([1]; against rh-α-IDUA): 4 µM
IC50 [1]: 6.7 µM
enhancement of IDUA activity versus rh-α-IDUA alone ([2]; 1 day, 1-day wash-out): 1.4 fold
IDUA activity with combined treatment versus rh-α-IDUA alone [2, 7]: three
IDUA activity, dose-dependence of co-treatment versus rh-α-IDUA alone ([2]; rh-α-IDUA 1 or 0.1 nM): enhanced by the 12/rh-α-IDUA co-treatment in a dose-dependent manner
reduction of accumulated HS versus rh-α-IDUA alone [3]: statistically significantly improved reduction
rh-α-IDUA activity on co-treatment [4]: dose-dependently enhanced
reduction of HS versus rh-α-IDUA alone [5]: significant reduction of HS
time course of enhancement of IDUA activity [6]: could be maintained

Molecule: NCC[C@@H]1N[C@@H](C(=O)O)[C@@H](O)[C@H](O)[C@H]1O [Compound 23]
IC50 (μM), NI = no inhibition at 250 μM ([1]; 250 μM compound, rh-α-IDUA): NI^a (NI refers to less than 10% inhibition at 250 μM.)

B1: rh-α-IDUA: recombinant human α-iduronidase, enzyme replacement protein (Aldurazyme®) (protein, UniProt P35475 28-653, looked up)
Alpha-L-iduronidase: APHLVHVDAARALWPLRRFWRSTGFCPPLPHSQADQYVLSWDQQLNLAYVGAVPHRGIKQVRTHWLLELVTTRGSTGRGLSYNFTHLDGYLDLLRENQLLPGFELMGSASGHFTDFEDKQQVFEWKDLVSSLARRYIGRYGLAHVSKWNFETWNEPDHHDFDNVSMTMQGFLNYYDACSEGLRAASPALRLGGPGDSFHTPPRSPLSWGLLRHCHDGTNFFTGEAGVRLDYISLHRKGARSSISILEQEKVVAQQIRQLFPKFADTPIYNDEADPLVGWSLPQPWRADVTYAAMVVKVIAQHQNLLLANTTSAFPYALLSNDNAFLSYHPHPFAQRTLTARFQVNNTRPPHVQLLRKPVLTAMGLLALLDEEQLWAEVSQAGTVLDSNHTVGVLASAHRPQGPADAWRAAVLIYASDDTRAHPNRSVAVTLRLRGVPPGPGLVYVTRYLDNGLCSPDGEWRRLGRPVFPTAEQFRRMRAAEDPVAAAPRPLPAGGRLTLRPALRLPSLLLVHVCARPEKPPGQVTRLRALPLTQGQLVLVWSDEHVGSKCLWTYEIQFSQDGKAYTPVSRKPSTFNLFVFSPDTGAVSGSYRVRALDYWARPGPFSDPVPYLEVPVPRGPPSPGNP
IDUA activity after treatment with rh-α-IDUA alone ([2]; rh-α-IDUA 0.1 nM, 1 day, 1-day wash-out): dramatically increased

The next lines start with the values.

IC50 [1]: 5.4 ± 0.5 µM
change of IDUA activity on co-treatment versus rh-α-IDUA alone ([2]; 1 day, 1-day wash-out): barely improved
IDUA activity on co-treatment at 500 μM [2, 7]: suppressed
Molecule: O=C(Cc1ccc(OP(=O)(O)O)cc1)NCC[C@@H]1O[C@@H](C(=O)O)[C@@H](O)[C@H](O)[C@H]1O [Compound 27a]

IC50 [1]: 4 ± 0.5 µM
enhancement of IDUA activity versus rh-α-IDUA alone ([2]; 1 day, 1-day wash-out): 1.6 fold
enhancement of IDUA activity at 500 μM [2, 7]: 1.7 fold
Molecule: O=C(Cc1cccc(OP(=O)(O)O)c1)NCC[C@@H]1O[C@@H](C(=O)O)[C@@H](O)[C@H](O)[C@H]1O [Compound 27b]

IC50 [1]: 1 µM
change of IDUA activity on co-treatment versus rh-α-IDUA alone ([2]; 1 day, 1-day wash-out): moderate reduction of IDUA activity
Molecule: O=C(Cc1ccccc1OP(=O)(O)O)NCC[C@@H]1O[C@@H](C(=O)O)[C@@H](O)[C@H](O)[C@H]1O [Compound 27c]
